Measured values from the NIST ThermoML archive (doi:10.1021/je800635g).

Experiment: xn = mol fraction of the nth substance listed
Settings: Liquid, Falling or rolling sphere viscometry

Cc1ccc(C)cc1 [1,4-dimethylbenzene] + CC(=O)O
viscosity [mPa·s]
Settings | x1 = 0.1001 | x1 = 0.1997 | x1 = 0.3001 | x1 = 0.3997 | x1 = 0.5 | x1 = 0.6002 | x1 = 0.6988 | x1 = 0.7994 | x1 = 0.8994
313.15 K, 100 kPa | 0.725 | 0.63 | 0.571 | 0.522 | 0.52 | 0.514 | 0.508 | 0.505 | 0.499
313.15 K, 800 kPa | 0.731 | 0.635 | 0.576 | 0.527 | 0.524 | 0.519 | 0.512 | 0.509 | 0.503
313.15 K, 1600 kPa | 0.737 | 0.641 | 0.583 | 0.532 | 0.53 | 0.524 | 0.517 | 0.514 | 0.508
313.15 K, 2400 kPa | 0.743 | 0.647 | 0.585 | 0.537 | 0.535 | 0.529 | 0.522 | 0.519 | 0.513
313.15 K, 3200 kPa | 0.749 | 0.653 | 0.591 | 0.543 | 0.541 | 0.534 | 0.527 | 0.525 | 0.518
333.15 K, 100 kPa | 0.587 | 0.508 | 0.459 | 0.424 | 0.419 | 0.418 | 0.415 | 0.412 | 0.407
333.15 K, 800 kPa | 0.592 | 0.514 | 0.464 | 0.429 | 0.424 | 0.423 | 0.419 | 0.416 | 0.411
333.15 K, 1600 kPa | 0.598 | 0.52 | 0.47 | 0.434 | 0.429 | 0.428 | 0.424 | 0.422 | 0.416
333.15 K, 2400 kPa | 0.605 | 0.526 | 0.476 | 0.44 | 0.435 | 0.433 | 0.429 | 0.427 | 0.421
333.15 K, 3200 kPa | 0.611 | 0.532 | 0.482 | 0.445 | 0.44 | 0.438 | 0.435 | 0.432 | 0.427
353.15 K, 100 kPa | 0.481 | 0.419 | 0.378 | 0.351 | 0.347 | 0.342 | 0.341 | 0.339 | 0.339
353.15 K, 800 kPa | 0.487 | 0.425 | 0.384 | 0.356 | 0.352 | 0.347 | 0.346 | 0.343 | 0.344
353.15 K, 1600 kPa | 0.493 | 0.431 | 0.39 | 0.361 | 0.357 | 0.352 | 0.351 | 0.349 | 0.349
353.15 K, 2400 kPa | 0.499 | 0.437 | 0.396 | 0.367 | 0.363 | 0.357 | 0.356 | 0.354 | 0.354
353.15 K, 3200 kPa | 0.505 | 0.444 | 0.402 | 0.372 | 0.368 | 0.363 | 0.361 | 0.359 | 0.359
373.15 K, 100 kPa | 0.399 | 0.353 | 0.314 | 0.297 | 0.293 | 0.289 | 0.287 | 0.285 | 0.288
373.15 K, 800 kPa | 0.405 | 0.359 | 0.319 | 0.302 | 0.298 | 0.293 | 0.291 | 0.289 | 0.293
373.15 K, 1600 kPa | 0.412 | 0.365 | 0.326 | 0.307 | 0.303 | 0.299 | 0.296 | 0.294 | 0.298
373.15 K, 2400 kPa | 0.418 | 0.372 | 0.332 | 0.313 | 0.309 | 0.304 | 0.302 | 0.3 | 0.303
373.15 K, 3200 kPa | 0.424 | 0.378 | 0.338 | 0.319 | – | – | – | – | –
